Several values for one entry are separate records, joined by “and”; a condition that tells them apart may be missing. Identical values can stand only once. Like-named read-outs stand apart in the source and are kept apart here.
Tests used:
[1] = Cardiovascular/ECG telemetry in dogs; format: in vivo; settings: in vivo, dog, low dose group, read-out: total Cmax
Protocol: (§1) The cardiovascular effects of orally administered AZD0328 were assessed dogs implanted with telemetry transmitters (Table 3). The main purpose of the study was to evaluate effects on the QT interval of the ECG during a 7-days dosing period followed by 5 days of recovery, thus enabling assessment of any accumulation of effects and the recovery back to baseline. Systolic, diastolic and mean arterial blood pressure, heart rate, lead II ECG and core body temperature were recorded continuously. The PR, QRS and QT intervals of the ECG were measured, and the QT interval was corrected for changes in heart rate using the method of Van de Water (QTcV).

dogs = test: Cardiovascular/ECG telemetry in dogs; format: in vivo; settings: dog, oral
Protocol: as §1

[2] = CNS side effects in rhesus monkeys; settings: rhesus monkey, in vivo, po, read-out: NOAEL for decreased spatial working memory performance and CNS side effects (oral movements)
Protocol: CNS side effects and decreased spatial working memory performance only occurred together in monkeys administered high dose AZD0328. The NOAEL for decreased spatial working memory performance and oral movements in rhesus monkeys was determined to be 0.016 mg/kg. Doses projected to produce therapeutic benefits in human subjects are those doses that were effective in functional assays across three species and were below the NOAEL for adverse effects on cognitive function and general behaviour in rhesus monkeys (<0.016 mg/kg). Doses projected to produce therapeutic benefits in human subjects therefore fall in the range 0.0001-0.01 mg/kg.

human hepatocytes = test: Human hepatocyte incubations; format: in vitro ADME; settings: four separate batches of human hepatocytes
Protocol: Pyridinyl methylation of AZD0328 was a unique polar metabolite (M2) observed in dog hepatocytes. Other minor hydroxylation/oxidation and glucuronide conjugation products were detected in monkey, dog, rat, and guinea pig hepatocyte incubations and mini-pig hepatic microsome incubations. […] Analysis of plasma and urine samples from either orally or iv dosed rats confirmed N-oxide product of AZD0328 was a main product in the excretion and circulation. The percentage of AZD0328 N-oxide in the plasma from male rats was much higher than from females.

[3] = Single dose PK/TK, ferret; settings: in vivo
Text: (§2) This section provides a summary of the pharmacokinetic and metabolism properties of AZD0328 derived from in vivo studies. […] The derived PK/TK parameters from these studies are presented in Table 4 for single dose studies (DMR4, 0619LR, 20030191PCR, DMO16, DMB10, DMW12, 50190, 0190DD and 03.330/1), and are presented in Table 5 multiple dose PK/TK studies (DMR4, 0612AR, DMB15, 50190, 0190DD and 0295AD).

[4] = Pentylenetetrazole-induced seizure threshold; settings: in vivo; rat, oral; read-out: NOAEL, proconvulsant activity
Protocol: AZD0328 was assessed for its ability to influence the threshold to clonic convulsions caused by an intravenous infusion of pentylenetetrazole (PTZ) in rats (Table 3).

Single dose PK/TK, rat = format: in vivo; settings: for AUC / Cmax / Tmax: in vivo
Text: as §2

[5] = biological target: α7 receptor binding sites (Rattus norvegicus, UniProt Q05941); format: in vivo; settings: sc, 2-4 h
α7 receptor binding sites, sequence (Q05941 23-502): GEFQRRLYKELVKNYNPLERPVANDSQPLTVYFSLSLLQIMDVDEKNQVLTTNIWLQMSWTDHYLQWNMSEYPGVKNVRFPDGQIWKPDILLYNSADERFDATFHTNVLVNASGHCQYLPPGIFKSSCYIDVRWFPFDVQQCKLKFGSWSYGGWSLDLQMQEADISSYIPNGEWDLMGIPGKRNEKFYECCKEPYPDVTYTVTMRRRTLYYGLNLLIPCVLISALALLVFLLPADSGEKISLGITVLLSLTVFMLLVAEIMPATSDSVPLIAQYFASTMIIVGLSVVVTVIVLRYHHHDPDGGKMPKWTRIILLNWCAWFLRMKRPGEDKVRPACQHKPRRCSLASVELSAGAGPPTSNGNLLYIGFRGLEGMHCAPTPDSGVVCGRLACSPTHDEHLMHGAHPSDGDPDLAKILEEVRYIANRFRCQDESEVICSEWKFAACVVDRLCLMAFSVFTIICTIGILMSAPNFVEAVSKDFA

[6] = biological target: human recombinant α7 receptor (Homo sapiens, UniProt P36544); test: Whole cell current activation kinetics, α7-HEK cells; format: cell-based; set-up: expressed in transfected cells; host or cells: Xenopus oocytes (mRNA injected)
human recombinant α7 receptor, sequence (P36544 23-502): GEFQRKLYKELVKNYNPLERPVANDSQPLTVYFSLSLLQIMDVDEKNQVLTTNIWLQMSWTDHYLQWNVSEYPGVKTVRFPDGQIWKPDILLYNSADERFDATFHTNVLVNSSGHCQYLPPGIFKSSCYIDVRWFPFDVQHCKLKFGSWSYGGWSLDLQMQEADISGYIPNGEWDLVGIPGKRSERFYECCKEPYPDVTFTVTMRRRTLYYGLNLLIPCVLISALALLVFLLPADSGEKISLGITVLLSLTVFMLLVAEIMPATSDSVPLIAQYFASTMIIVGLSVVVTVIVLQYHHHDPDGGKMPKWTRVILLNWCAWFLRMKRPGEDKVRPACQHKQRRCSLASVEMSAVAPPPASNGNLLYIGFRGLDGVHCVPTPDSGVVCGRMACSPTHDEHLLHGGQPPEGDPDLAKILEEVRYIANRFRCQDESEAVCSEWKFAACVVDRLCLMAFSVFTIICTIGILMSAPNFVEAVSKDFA

[7] = Multiple dose PK/TK, minipig; format: in vivo; settings: capsules fasted; for AUC / Cmax / Tmax: both sexes, Gottingen, minipig, in vivo, po
Text: as §2

[8] = male, ferret 4M, DMO16, single oral 10 mg/kg (46 μmol/kg)
[9] = both sexes, rat 1M+1F, DMR4, single oral 2.16 mg/kg (10 μmol/kg)
[10] = female, rat 2F, 0619LR, single oral 149 mg/kg (690 μmol/kg)
[11] = male, rat 3M, 0619LR, single oral 201 mg/kg (930 μmol/kg)
[12] = male, rat 4M, 20030191PCR, single oral 1.08 mg/kg (5 μmol/kg)
[13] = male, rat 4M, 20030191PCR, single oral 32.4 mg/kg (150 μmol/kg)
[14] = male, rat 4M, 20030191PCR, single oral 54.1 mg/kg (250 μmol/kg)
[15] = male, rat 4M, 20030191PCR, single oral 86.5 mg/kg (400 μmol/kg)
[16] = 73.1 mg/kg, minipig 2F+2M, 50190, 73.1 mg/kg (338 μmol/kg), day 1
[17] = 73.1 mg/kg, minipig 2F+2M, 50190, 73.1 mg/kg (338 μmol/kg), day 7
[18] = 422 mg/kg, minipig 2F+2M, 50190, 422 mg/kg (1951 μmol/kg), day 7

For `c1cnc2c(c1)C[C@@]1(CN3CCC1CC3)O2` [AZD0328, (R)-Spiro[1-azabicyclo[2.2.2]octane-3,2′(3′H)-furo[2,3-b]pyridine]], the Cmax ([1]; oral, day 7 (lowest)) was 800 nM, the Cmax ([1]; po, day 4) was 1500 nM and the “single dose followed by frequent vomiting” value (dogs) was 17.3 mg/kg and 34.6 mg/kg. The NOAEL [2] was 0.016 mg/kg, the “metabolites in human hepatocyte incubations” value (human hepatocytes) was “no metabolites were detected” and the half-life ([3]; ferret, read-out: elimination half-life) was less than 5 h. The AUC [3, 8] was 4000 ng·h/mL and 18.3 µM·h, the Cmax [3, 8] was 590 ng/mL and 2.73 µM and the Tmax [3, 8] was 0.25 to 1 h. For the same compound, the half-life ([3]; male, ferret 4M, DMO16, single oral 10 mg/kg (46 μmol/kg), read-out: T½ (converted)) was 3.98 ± 1.66 h, the NOAEL [4] was 64.9 mg/kg and the AUC (Single dose PK/TK, rat; [9]) was 699 ng·h/mL to 861 ng·h/mL and 3.23 µM·h to 3.98 µM·h. For the same compound, the Cmax (Single dose PK/TK, rat; [9]) was 251 ng/mL to 344 ng/mL and 1.16 µM to 1.59 µM, the Tmax (Single dose PK/TK, rat; [9]) was 0.5 to 1 h and the AUC (Single dose PK/TK, rat; [10]) was 76600 ng·h/mL and 354 µM·h. The Cmax (Single dose PK/TK, rat; [10]) was 4740 ng/mL to 11600 ng/mL and 21.9 µM, the AUC (Single dose PK/TK, rat; [11]) was 49800 ng·h/mL and 230 µM·h and the Cmax (Single dose PK/TK, rat; [11]) was 15.9 µM and 3440 ng/mL. For the same compound, the AUC (Single dose PK/TK, rat; [12]) was 441 ng·h/mL and 2.04 µM·h, the Cmax (Single dose PK/TK, rat; [12]) was 99.9 ng/mL and 462 nM and the Tmax (Single dose PK/TK, rat; [12]) was 1 h. The AUC (Single dose PK/TK, rat; [13]) was 26600 ng·h/mL and 123 µM·h, the Cmax (Single dose PK/TK, rat; [13]) was 2570 ng/mL and 11.9 µM and the Tmax (Single dose PK/TK, rat; [13]) was 1 h. For the same compound, the AUC (Single dose PK/TK, rat; [14]) was 37900 ng·h/mL and 175 µM·h, the Cmax (Single dose PK/TK, rat; [14]) was 4500 ng/mL and 20.8 µM and the Tmax (Single dose PK/TK, rat; [14]) was 1 h. For the same compound, the AUC (Single dose PK/TK, rat; [15]) was 90000 ng·h/mL and 416 µM·h, the Cmax (Single dose PK/TK, rat; [15]) was 6750 ng/mL and 31.2 µM and the Tmax (Single dose PK/TK, rat; [15]) was 1 h. For the same compound, the F (Single dose PK/TK, rat; rat 1M+1F, DMR4, oral 2.16 mg/kg vs iv 1.08 mg/kg) was 78-84%, the plasma concentrations (Single dose PK/TK, rat; rat, 1 mg per kg (minimum effective dose in fimbria fornix model)) was 290 to 1400 nM and the estimated plasma concentrations (Single dose PK/TK, rat; rats, extended to mice, 0.001-0.1 mg per kg) was 0.29 to 100 nM. For the same compound, the “Dose active: [125I]-α-bungarotoxin binding ex vivo, increased receptor number” value [5] was 0.1 µg/kg, the “10-90% rise time, whole cell current” value [6] was 1.5 ms and the AUC [7, 16] was 3140 ng·h/mL and 14.5 µM·h. The Cmax [7, 16] was 379 ng/mL and 1.75 µM, the Tmax [7, 16] was 2 to 6 h and the AUC [7, 17] was 4610 ng·h/mL and 21.3 µM·h. The Cmax [7, 17] was 794 ng/mL and 3.67 µM, the Tmax [7, 17] was 0.5 to 4 h and the AUC [7, 18] was 25700 ng·h/mL to 27700 ng·h/mL and 119 µM·h to 128 µM·h. The Cmax [7, 18] was 1420 ng/mL to 1570 ng/mL and 6.57 µM to 7.24 µM, the Tmax [7, 18] was 12 h and the AUC/dose ([7]; minipig 2F+2M, 50190, 73.1 mg/kg (338 μmol/kg), day 1) was 0.0429 ± 0.0275. The AUC/dose ([7]; minipig 2F+2M, 50190, 73.1 mg/kg (338 μmol/kg), day 7) was 0.0630 ± 0.0288 and the AUC/dose ([7]; minipig 2F+2M, 50190, 422 mg/kg (1951 μmol/kg), day 7) was 0.0610-0.0656.

— patent US20080242688A1, “Method 741” (ASTRAZENECA AB, priority 2007, published 2008)
